Assay: xn = mol fraction of the nth substance listed
Details: 303.15 K, 100 kPa, Liquid, Alternating current cell with electrodes

CCCC[N+]1(C)CCCC1.N#CN=C=[N-] [1-butyl-1-methylpyrrolidinium dicyanamide] + O=C1CCCO1
Details | electrical conductivity [S/m]
Frequency=0.00347222 MHz, x1 = 0.4985 | 2.33
Frequency=0.00347222 MHz, x1 = 0.6954 | 1.912
Frequency=0.00347222 MHz, x1 = 0.9013 | 1.607
Frequency=0.00347222 MHz, x1 = 1 | 1.527
Frequency=0.004 MHz, x1 = 0.0463 | 1.58
Frequency=0.004 MHz, x1 = 0.0987 | 2.38
Frequency=0.004 MHz, x1 = 0.1449 | 2.71
Frequency=0.004 MHz, x1 = 0.1859 | 2.9
Frequency=0.004 MHz, x1 = 0.2493 | 2.85
Frequency=0.004 MHz, x1 = 0.3029 | 2.79
Frequency=0.004 MHz, x1 = 0.3845 | 2.618
Frequency=0.004 MHz, x1 = 0.4985 | 2.33
Frequency=0.004 MHz, x1 = 0.6954 | 1.912
Frequency=0.004 MHz, x1 = 0.9013 | 1.607
Frequency=0.004 MHz, x1 = 1 | 1.527
Frequency=0.00446429 MHz, x1 = 0.0463 | 1.58
Frequency=0.00446429 MHz, x1 = 0.0987 | 2.38
Frequency=0.00446429 MHz, x1 = 0.1449 | 2.71
Frequency=0.00446429 MHz, x1 = 0.1859 | 2.9
Frequency=0.00446429 MHz, x1 = 0.2493 | 2.85
Frequency=0.00446429 MHz, x1 = 0.3029 | 2.79
Frequency=0.00446429 MHz, x1 = 0.3845 | 2.618
Frequency=0.00446429 MHz, x1 = 0.4985 | 2.33
Frequency=0.00446429 MHz, x1 = 0.6954 | 1.912
Frequency=0.00446429 MHz, x1 = 0.9013 | 1.608
Frequency=0.00446429 MHz, x1 = 1 | 1.527
Frequency=0.005 MHz, x1 = 0.0463 | 1.58
Frequency=0.005 MHz, x1 = 0.0987 | 2.38
Frequency=0.005 MHz, x1 = 0.1449 | 2.71
Frequency=0.005 MHz, x1 = 0.1859 | 2.9
Frequency=0.005 MHz, x1 = 0.2493 | 2.85
Frequency=0.005 MHz, x1 = 0.3029 | 2.79
Frequency=0.005 MHz, x1 = 0.3845 | 2.618
Frequency=0.005 MHz, x1 = 0.4985 | 2.33
Frequency=0.005 MHz, x1 = 0.6954 | 1.912
Frequency=0.005 MHz, x1 = 0.9013 | 1.608
Frequency=0.005 MHz, x1 = 1 | 1.527
Frequency=0.005454 MHz, x1 = 0.0463 | 1.58
Frequency=0.005454 MHz, x1 = 0.0987 | 2.38
Frequency=0.005454 MHz, x1 = 0.1449 | 2.71
Frequency=0.005454 MHz, x1 = 0.1859 | 2.9
Frequency=0.005454 MHz, x1 = 0.2493 | 2.86
Frequency=0.005454 MHz, x1 = 0.3029 | 2.79
Frequency=0.005454 MHz, x1 = 0.3845 | 2.619
Frequency=0.005454 MHz, x1 = 0.4985 | 2.33
Frequency=0.005454 MHz, x1 = 0.6954 | 1.912
Frequency=0.005454 MHz, x1 = 0.9013 | 1.608
Frequency=0.005454 MHz, x1 = 1 | 1.527
Frequency=0.006 MHz, x1 = 0.0463 | 1.58
Frequency=0.006 MHz, x1 = 0.0987 | 2.38
Frequency=0.006 MHz, x1 = 0.1449 | 2.71
Frequency=0.006 MHz, x1 = 0.1859 | 2.9
Frequency=0.006 MHz, x1 = 0.2493 | 2.86
Frequency=0.006 MHz, x1 = 0.3029 | 2.79
Frequency=0.006 MHz, x1 = 0.3845 | 2.619
Frequency=0.006 MHz, x1 = 0.4985 | 2.33
Frequency=0.006 MHz, x1 = 0.6954 | 1.912
Frequency=0.006 MHz, x1 = 0.9013 | 1.608
Frequency=0.006 MHz, x1 = 1 | 1.527
Frequency=0.00652174 MHz, x1 = 0.0463 | 1.58
Frequency=0.00652174 MHz, x1 = 0.0987 | 2.38
Frequency=0.00652174 MHz, x1 = 0.1449 | 2.71
Frequency=0.00652174 MHz, x1 = 0.1859 | 2.9
Frequency=0.00652174 MHz, x1 = 0.2493 | 2.86
Frequency=0.00652174 MHz, x1 = 0.3029 | 2.79
Frequency=0.00652174 MHz, x1 = 0.3845 | 2.619
Frequency=0.00652174 MHz, x1 = 0.4985 | 2.33
Frequency=0.00652174 MHz, x1 = 0.6954 | 1.913
Frequency=0.00652174 MHz, x1 = 0.9013 | 1.608
Frequency=0.00652174 MHz, x1 = 1 | 1.527
Frequency=0.00694444 MHz, x1 = 0.0463 | 1.58
Frequency=0.00694444 MHz, x1 = 0.0987 | 2.38
Frequency=0.00694444 MHz, x1 = 0.1449 | 2.71
Frequency=0.00694444 MHz, x1 = 0.1859 | 2.901
Frequency=0.00694444 MHz, x1 = 0.2493 | 2.86
Frequency=0.00694444 MHz, x1 = 0.3029 | 2.79
Frequency=0.00694444 MHz, x1 = 0.3845 | 2.619
Frequency=0.00694444 MHz, x1 = 0.4985 | 2.33
Frequency=0.00694444 MHz, x1 = 0.6954 | 1.913
Frequency=0.00694444 MHz, x1 = 0.9013 | 1.608
Frequency=0.00694444 MHz, x1 = 1 | 1.527
Frequency=0.0075 MHz, x1 = 0.0463 | 1.58
Frequency=0.0075 MHz, x1 = 0.0987 | 2.38
Frequency=0.0075 MHz, x1 = 0.1449 | 2.71
Frequency=0.0075 MHz, x1 = 0.1859 | 2.901
Frequency=0.0075 MHz, x1 = 0.2493 | 2.86
Frequency=0.0075 MHz, x1 = 0.3029 | 2.79
Frequency=0.0075 MHz, x1 = 0.3845 | 2.619
Frequency=0.0075 MHz, x1 = 0.4985 | 2.33
Frequency=0.0075 MHz, x1 = 0.6954 | 1.913
Frequency=0.0075 MHz, x1 = 0.9013 | 1.608
Frequency=0.0075 MHz, x1 = 1 | 1.527
Frequency=0.008 MHz, x1 = 0.0463 | 1.58
Frequency=0.008 MHz, x1 = 0.0987 | 2.38
Frequency=0.008 MHz, x1 = 0.1449 | 2.71
Frequency=0.008 MHz, x1 = 0.1859 | 2.902
Frequency=0.008 MHz, x1 = 0.2493 | 2.86
Frequency=0.008 MHz, x1 = 0.3029 | 2.79
Frequency=0.008 MHz, x1 = 0.3845 | 2.62
Frequency=0.008 MHz, x1 = 0.4985 | 2.33
Frequency=0.008 MHz, x1 = 0.6954 | 1.913
Frequency=0.008 MHz, x1 = 0.9013 | 1.608
Frequency=0.008 MHz, x1 = 1 | 1.527
Frequency=0.00857143 MHz, x1 = 0.0463 | 1.58
Frequency=0.00857143 MHz, x1 = 0.0987 | 2.38
Frequency=0.00857143 MHz, x1 = 0.1449 | 2.71
Frequency=0.00857143 MHz, x1 = 0.1859 | 2.902

— the NIST ThermoML archive (doi:10.1016/j.jct.2015.08.014)
